The results in this text go back to patent publication US10563272B2, “Compositions comprising Metarhizium fungi and use thereof as a pesticide” (Cotton Research and Development Corporation, priority 2015, dated 2020).

For one data set, the system named is spiders. Description: Rate trial on conventional cotton refuge crops, Undabri 2012 (Example 12): spiders. It counts as in vivo, Lycosa spp., Oxyopes spp., Salticidae spp., Araneus spp. The conditions noted are these: DAT 511 250 mL/ha, 500 mL/ha and 1.0 L/ha; fipronil 62.5 mL/ha. The protocol: (§1) This trial was conducted using commercial conventional cotton refuge crops at Undabri in Goondiwindi (28° 55'S, 150° 31′E) from 14 Feb. to 6 Mar. 2012.
(§2) The efficacy of the following treatments against green mirids, green vegetable bugs and predatory insects was assessed: • 1. 250 mL/ha DAT 511 spore in oil (1×10^7 spores/ml); • 2. 500 mL/ha DAT 511 spore in oil (1×10^7 spores/ml); • 3. 1 L/ha DAT 511 spore in oil (1×10^7 spores/ml); • 4. 62.5 mL/ha fipronil; and • 5. Unsprayed (negative control).
(§3) The plots were arranged in a randomized complete block design with three replicates per treatment. Each replicated plot measured 8 m (8 rows) wide and 250 m long.
(§4) Foliar applications of each treatment were made on 14 Feb. 2012 using a ground spray rig fitted with flat fan nozzles to achieve a droplet size of 200 μm. All insecticide formulations were water miscible. All treatments were applied using a spray volume of 100 L/ha. The untreated (negative control) plot was left unsprayed and the plot treated with synthetic insecticide received two applications similar to, and on the same date as, the plots treated with the fungus.
(§5) For each replicate, visual counts of adults and nymphs of green mirids, green vegetable bugs (GVB), apple dimpling bugs and predatory insects on whole cotton plants were made in a randomly selected 1 m length of row of cotton plants (i.e. 6 m per treatment). […]

The subject of data set [1] is predatory lacewings. Description: Rate trial on conventional cotton refuge crops, Undabri 2012 (Example 12): predatory lacewings. The format is in vivo, Chrysopa spp., Micromus tasmaniae. To be noted: DAT 511 250 mL/ha, 500 mL/ha and 1.0 L/ha; fipronil 62.5 mL/ha. The protocol:
as §1, §2, §3, §4, §5

Data set [2] concerns Creontiades dilutus (green mirids). In words: Foliar spray trial on Bollgard II cotton, Norwood 2010-11 (Example 7): green mirids. It counts as in vivo. To be noted: first spray, three DAT; BC 667/DAT 511 500 mL/ha, fipronil 62.5 mL/ha. As to the method: The trial was conducted on commercial Bollgard II® cotton crops at Norwood near Moree, NSW from 5 Dec. 2010 to 19 Feb. 2011. The cotton was at the early squaring stage, when it was attractive to green mirids (Khan et al. 2004).
(§6) The study evaluated the efficacy of the following treatments against green mirids, green vegetable bugs and predatory insects: • 1. 500 mL/ha BC 667 spore in oil (1×10^7 spores/ml); • 2. 500 mL/ha DAT 511 spore in oil (1×10^7 spores/ml); • 3. 62.5 mL/ha Fipronil (conventional insecticide); and • 4. Unsprayed (control).
The treatment plots were arranged in a randomized complete block design with four replicates per treatment. Each replicated plot measured 0.5 ha. Foliar application of each treatment was made on 18 Jan. 2011 using a ground spray rig fitted with flat fan nozzles to achieve a droplet size of 80 250 μm. The treatment was applied in the mornings when temperature was between 20° C. and 28° C. […]
Pre-treatment counts of green mirid adults and nymphs, predatory beetles, predatory bugs, predatory lacewings and spiders were made by visual inspection of whole cotton plants. Both adults and nymphs of the beneficial insects were counted. Plants were assessed in randomly selected one-metre lengths of row of each treatment replicate (i.e. four metres per treatment). […] Data are expressed as numbers of individuals of that species counted per metre for each treatment.

Data set [3] in a line: Foliar spray trial on Bollgard II cotton, Norwood 2010-11 (Example 7): yield. To be noted: BC 667/DAT 511 0.50 L/ha, fipronil 62.5 mL/ha. The format is in vivo. As to the method: as §6
The treatment plots were arranged in a randomized complete block design with four replicates per treatment. Each replicated plot measured 0.5 ha. Foliar application of each treatment was made on 18 Jan. 2011 using a ground spray rig fitted with flat fan nozzles to achieve a droplet size of 80 250 μm. The treatment was applied in the mornings when temperature was between 20° C. and 28° C. The timing of treatment was based on an economic threshold of 0.5 green mirids per metre, the IPM guideline and recommendation by CottonLogic.
Cotton in each treated plot was harvested separately using a four-row picker (John Deere, Model 9965, USA) at the end of the season and the average lint yields (bales/acre) were compared between treatments.

Data set [4] relates to predatory lacewings. In words: Bollgard II cotton, Auscott-Togo 2012-13, Field 77 (Experiment 1): predatory lacewings. The format is in vivo, Chrysopa spp., Micromus tasmaniae. To be noted: 62.5 mL/ha. As to the method:
Two separate trials (Experiment 1 in Field 77; Experiment 2 in Field 63) were conducted in Bollgard II cotton crops on a commercial cotton farm at Auscott-Togo near Narrabri, New South Wales from 11 Feb. to 5 Mar. 2013 (Field 77) and 19 Feb. to 6 Mar. 2013 (Field 63). The cotton used for each of the trials was at the late squaring to pod setting and maturation stages which was fairly attractive to green mirids.
In both trials, the efficacy of the following treatments against green mirids and predatory insects was evaluated: • 1. 250 mL/ha DAT 511 spore in oil (1×10^7 spores/ml); • 2. 500 mL/ha DAT 511 spore in oil (1×10^7 spores/ml); • 3. 1 L/ha DAT 511 spore in oil (1×10^7 spores/ml); • 4. 62.5 mL/ha of fipronil; and • 5. Unsprayed (negative control).
The treatment plots were arranged in a randomized complete block design with six replicates per treatment. Each replicated plot measured 40 m wide (40 rows) and 90 m long.
Foliar application of each treatment was made on 28 Feb. (for both green mirids and beneficial insects) and 13 Mar. 2012 (for beneficial insects alone) using a ground spray rig fitted with flat fan nozzles to achieve a droplet size of 200 μm. The treatment was applied during the mornings when temperatures were between 20° C. and 28° C. The timing of treatment was based on the IPM Guidelines and recommendations by CottonLogic to use an economic threshold of 0.5 green mirids per metre (Deutscher and Wilson 1999; Khan et al. 2004).
Pre-treatment counts of green mirid adults and nymphs, predatory beetles, predatory bugs, predatory lacewings and spiders were made by visual inspection of whole cotton plants. Both adults and nymphs of beneficial insects were counted. Plants were assessed in randomly selected one-metre lengths of row of each replicate (i.e. 6 m per treatment). Post-treatment counts were made 3, 7, 14 and 21 days after treatment. Data are expressed as numbers of green mirid adults and nymphs counted per metre for each treatment.

The next data set deals with apple dimpling bugs. In words: Rate trial on conventional cotton refuge crops, Undabri 2012 (Example 12): apple dimpling bugs. It counts as in vivo, Campylomma liebknechti. As to the method:
as §1, §2, §3, §4, §5

Structures are written as SMILES.

Consider `N#Cc1nn(-c2c(Cl)cc(C(F)(F)F)cc2Cl)c(N)c1[S+]([O-])C(F)(F)F` (centres unmarked) [fipronil], for which the “effect on number of spiders per metre” value in the data set with spiders is given as “significantly lower”. Moreover, the “effect on number of predatory lacewings per metre” value with predatory lacewings [1] is listed as “significantly lower”. In data set [2], this compound showed a green mirid mortality of 100%. Besides, the “Yields (bales/acre)” value in data set [3] stood at 4.67 ± 0.63 a bales/acre. Further, the “No. predatory lacewings per meter” value in the data set with predatory lacewings [4] (3 DAT) is on record as 0.00 ± 0.00 a per meter; with predatory lacewings [4] (7 DAT) it was 0.00 ± 0.00 a per meter; in the data set with predatory lacewings [4] (14 DAT), 0.33 ± 0.33 a per meter; with predatory lacewings [4] (21 DAT) it was 0.33 ± 0.33 a per meter; with predatory lacewings [4] (pre-spray counts) it was 0.00 ± 0.00 a per meter. The “apple dimpling bug adults per metre versus the unsprayed plot” value in the data set with apple dimpling bugs (3, 7, 14 and 21 DAT, P<0.01) is “significantly fewer”. Moreover, the “apple dimpling bug nymphs per metre versus unsprayed plots” value in the data set with apple dimpling bugs (7 DAT only, P<0.05) is “significantly lower”.
